In patent publication US6353111B1, “Trans olefinic glucokinase activators” (Hoffmann-La Roche Inc., priority 1999, dated 2002):

How the values were obtained:
[1] = test system: C57BL/6J mice; experiment: Glucokinase activator in vivo screen protocol (blood glucose after oral dosing); conditions: oral gavage 50 mg/kg after two hour fast, blood glucose at 1, 2, 4 and 6 hours post dose, active = p≦0.05 decrease for two consecutive time points
Experimental: Glucokinase Activator in vivo Screen Protocol
C57BL/6J. mice are orally dosed via gavage with Glucokinase (GK) activator at 50 mg/kg body weight following a two hour fasting period. Blood glucose determinations are made five times during the six hour post-dose study period.
Mice (n=6) are weighed and fasted for a two hour period prior to oral treatment. GK activators are formulated at 6.76 mg/ml in Gelucire vehicle (Ethanol:Gelucire44/14:PEG400q.s. 4:66:30 v/w/v. Mice are dosed orally with 7.5 μl formulation per gram of body weight to equal a 50 mg/kg dose. Immediately prior to dosing, a pre dose (time zero) blood glucose reading is acquired by snipping off a small portion of the animals tail (˜1 mm) and collecting 15 μl blood into a heparinized capillary tube for analysis. Following GK activator administration, additional blood glucose readings are taken at 1, 2, 4 and 6 hours post dose from the same tail wound. Results are interpreted by comparing the mean blood glucose values of six vehicle treated mice with six GK activator treated mice over the six hour study duration.

## CC/C=C(/C(=O)Nc1nccs1)c1ccc(S(C)(=O)=O)cc1 [Example 1, (E)-2-(4-Methanesulfonyl-phenyl)-pent-2-enoic acid thiazol-2-ylamide]
other
  melting point: 155 to 158 °C

## CS(=O)(=O)c1ccc(/C(=C\C2CCCC2)C(=O)Nc2nccs2)cc1 [Example 3, (E)-3-Cyclopentyl-2-(4-methanesulfonyl-phenyl)-N-thiazol-2-yl-acrylamide]
[1]
  glucokinase activator in vivo activity (decrease in blood glucose compared to vehicle): excellent glucokinase activator in vivo activity
other
  melting point: 172 to 173 °C

## CS(=O)(=O)c1ccc(/C(=C\C2CCCCC2)C(=O)Nc2nccs2)cc1 [Example 4, (E)-3-Cyclohexyl-2-(4-methanesulfonyl-phenyl)-N-thiazol-2-yl-acrylamide]
[1]
  glucokinase activator in vivo activity (decrease in blood glucose compared to vehicle): excellent glucokinase activator in vivo activity

## CS(=O)(=O)c1ccc(/C(=C\C2CCCCCC2)C(=O)Nc2nccs2)cc1 [Example 5, (E)-3-Cycloheptyl-2-(4-methanesulfonyl-phenyl)-N-thiazol-2-yl-acrylamide]
[1]
  glucokinase activator in vivo activity (decrease in blood glucose compared to vehicle): excellent glucokinase activator in vivo activity
other
  melting point: 163 to 165 °C

## CS(=O)(=O)c1ccc(/C(=C\C2CCCC2)C(=O)Nc2ncc(Br)s2)cc1 [Example 7, (E)-N-(5-Bromo-thiazol-2-yl)-3-cyclopentyl-2-(4-methanesulfonyl-phenyl)-acrylamide]
other
  melting point: 202 to 205 °C

## O=C(Nc1nccs1)/C(=C/C1CCCC1)c1ccc(Cl)c(Cl)c1 [Example 8, (E)-3-Cyclopentyl-2-(3,4-dichloro-phenyl)-N-thiazol-2-yl-acrylamide]
other
  melting point: 57 to 59 °C

## CS(=O)(=O)c1ccc(/C(=C\C2CCCC2)C(=O)Nc2nccs2)cc1Cl [Example 9, (E)-2-(3-Chloro-4-methanesulfonyl-phenyl)-3-cyclopentyl-N-thiazol-2-yl-acrylamide]
[1]
  glucokinase activator in vivo activity (decrease in blood glucose compared to vehicle): excellent glucokinase activator in vivo activity

## CS(=O)(=O)c1ccc(/C(=C\C2CCCCC2)C(=O)Nc2nccs2)cc1C(F)(F)F [Example 12, (E)-3-Cyclohexyl-2-(4-methanesulfonyl-3-trifluoromethyl-phenyl)-N-thiazol-2-yl-acrylamide]
[1]
  glucokinase activator in vivo activity (decrease in blood glucose compared to vehicle): excellent glucokinase activator in vivo activity

## CS(=O)(=O)c1ccc(/C(=C\C2CCCCC2)C(=O)Nc2nccs2)cc1[N+](=O)[O-] [Example 14, (E)-3-Cyclohexyl-2-(4-methanesulfonyl-3-nitro-phenyl)-N-thiazol-2-yl-acrylamide]
[1]
  glucokinase activator in vivo activity (decrease in blood glucose compared to vehicle): excellent glucokinase activator in vivo activity

## CS(=O)(=O)c1ccc(/C(=C\C2CCCCCC2)C(=O)Nc2ncc(Br)s2)cc1 [Example 16, (E)-N-(5-Bromo-thiazol-2-yl)-3-cycloheptyl-2-(4-methanesulfonyl-phenyl)-acrylamide]
[1]
  glucokinase activator in vivo activity (decrease in blood glucose compared to vehicle): excellent glucokinase activator in vivo activity
other
  melting point: 159 to 163 °C

## CS(=O)(=O)c1ccc(/C(=C\C2CCCC2)C(=O)Nc2ccccn2)cc1Cl [Example 19, (E)-2-(3-Chloro-4-methanesulfonyl-phenyl)-3-cyclopentyl-N-pyridin-2-yl-acrylamide]
[1]
  glucokinase activator in vivo activity (decrease in blood glucose compared to vehicle): excellent glucokinase activator in vivo activity

## CS(=O)(=O)c1ccc(/C(=C\C2CCCCC2)C(=O)Nc2ccc(Br)cn2)cc1C(F)(F)F [Example 20, (E)-N-(5-Bromo-pyridin-2-yl)-3-cyclohexyl-2-(4-methanesulfonyl-3-trifluoromethyl-phenyl)-acrylamide]
[1]
  glucokinase activator in vivo activity (decrease in blood glucose compared to vehicle): excellent glucokinase activator in vivo activity

## CS(=O)(=O)c1ccc(/C(=C\CC2CCCC2)C(=O)Nc2nccs2)cc1 [Example 21, (E)-4-Cyclopentyl-2-(4-methanesulfonyl-phenyl)-but-2-enoic acid thiazol-2-ylamide]
[1]
  glucokinase activator in vivo activity (decrease in blood glucose compared to vehicle): excellent glucokinase activator in vivo activity
other
  melting point: 173 to 176 °C

## COC(=O)c1csc(NC(=O)/C(=C/CC2CCCC2)c2ccc(S(C)(=O)=O)cc2)n1 [Example 22, (E)-2-[4-Cyclopentyl-2-(4-methanesulfonyl-phenyl)-but-2-enoylamino]-thiazole-4-carboxylic acid methyl ester]
[1]
  glucokinase activator in vivo activity (decrease in blood glucose compared to vehicle): excellent glucokinase activator in vivo activity
other
  melting point: 85 to 90 °C

## CS(=O)(=O)c1ccc(/C(=C\CC2CCCC2)C(=O)Nc2nccs2)cc1C(F)(F)F [Example 25, (E)-4-Cyclopentyl-2-(4-methanesulfonyl-3-trifluoromethyl-phenyl)-but-2-enoic acid thiazol-2-ylamide]
[1]
  glucokinase activator in vivo activity (decrease in blood glucose compared to vehicle): excellent glucokinase activator in vivo activity

## CNC(=O)NC(=O)/C(=C/C(C)C)c1ccc(Cl)c(Cl)c1 [Example 26, (E)-1-[2-(3,4-Dichloro-phenyl)-4-methyl-pent-2-enoyl]-3-methyl-urea]
other
  melting point: 177 to 178 °C

## CNC(=O)NC(=O)/C(=C/C1CCCCC1)c1ccc(S(C)(=O)=O)c(C(F)(F)F)c1 [Example 27, (E)-1-[3-Cyclohexyl-2-(4-methanesulfonyl-3-trifluoromethyl-phenyl)-acryloyl]-3-methyl-urea]
other
  melting point: 199 to 202 °C
